# pIC50: −log10 of the molar value. Active and inactive are the calls of the source. The rule behind the calls is not given here.
# Experiments:
# [1] = molecular target: Cyclin-dependent kinase 13/Cyclin-K (Homo sapiens, UniProt Q14004); assay: Inhibition of human recombinant N-terminal GST-tagged CDK13/N-terminal FLAG and C-terminal His-tagged Cyclin K expressed in HEP Sf9 cells using ATP as substrate measured after 60 mins by ADP-Glo reagent based luminescence assay
# [2] = Toxicity against female Sprague-Dawley rat assessed as effect on blood urea nitrogen level at 7.5 to 30 mg/kg, po administered once daily via gavage for 28 days and measured on day 29; type: organism-based; conditions: in vivo, 696 h, dose 7.5-30 mg/kg, time 29 day
# [3] = test system: Mus musculus; assay: In vivo inhibition of CDK12/13 in Balb/c mouse xenografted with human SUM149PT cells assessed as reduction in FANCI gene expression at 15 to 30 mg/kg, po administered once daily via gavage and measured at 4 hrs post-last drug dosage by qPCR analysis; type: functional, organism-based; conditions: dose 15-30 mg/kg
# [4] = Cmax in female Sprague-Dawley rat at 7.5 mg/kg, po administered via gavage and measured on day 1; type: ADME, organism-based; conditions: in vivo, time 1 day
# [5] = test system: NCI-H508; assay: Antiproliferative activity against human NCI-H508 cells assessed as reduction in cell viability incubated for 7 days by CellTiter-Glo reagent based luminescence analysis; type: functional; conditions: NCI-H508, 168 h
# [6] = GSH reactivity assessed as half life to adduct formation at 10 uM by LC-MS/MS analysis; type: physicochemical
# [7] = molecular target: Cytochrome P450 2D6 (Homo sapiens, UniProt P10635); assay: Inhibition of CYP2D6 in human liver microsomes assessed as inhibition of dextromethorphan-O-demethylation incubated for 10 mins in presence of NADPH by LC-MS/MS analysis; type: ADME, Microsome
# Chain of Cytochrome P450 2D6 (P10635 whole entry): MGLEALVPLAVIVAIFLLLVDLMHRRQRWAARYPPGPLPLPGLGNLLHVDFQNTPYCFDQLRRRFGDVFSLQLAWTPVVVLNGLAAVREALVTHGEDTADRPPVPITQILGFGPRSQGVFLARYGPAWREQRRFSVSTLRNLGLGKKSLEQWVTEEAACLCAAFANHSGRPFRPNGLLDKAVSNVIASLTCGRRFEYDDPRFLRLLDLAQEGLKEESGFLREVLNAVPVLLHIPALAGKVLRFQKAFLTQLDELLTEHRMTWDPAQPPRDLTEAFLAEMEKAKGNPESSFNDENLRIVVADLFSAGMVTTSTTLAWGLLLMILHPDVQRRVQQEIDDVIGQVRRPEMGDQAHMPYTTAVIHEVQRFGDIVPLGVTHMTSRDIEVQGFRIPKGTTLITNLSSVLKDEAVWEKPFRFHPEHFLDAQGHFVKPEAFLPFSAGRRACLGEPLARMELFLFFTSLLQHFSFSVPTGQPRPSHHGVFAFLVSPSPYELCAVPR
# [8] = test system: DLD-1; assay: Antiproliferative activity against human DLD-1 cells assessed as reduction in cell viability incubated for 7 days by CellTiter-Glo reagent based luminescence analysis; type: functional; conditions: DLD-1, 168 h
# [9] = AUC in Balb/c mouse xenografted with human MV4-11 cells at 15 mg/kg, po administered once daily via gavage; type: ADME, organism-based; conditions: in vivo
# [10] = AUC (0 to infinity) in Sprague-Dawley rat at 1 mg/kg, iv by LC-MS/MS analysis; type: ADME, organism-based; conditions: in vivo
# [11] = test system: MV4-11; assay: Antiproliferative activity against human MV4-11 cells assessed as reduction in cell viability incubated for 7 days by CellTiter-Glo reagent based luminescence analysis; type: functional; conditions: MV4-11, 168 h
# [12] = Toxicity against male Sprague-Dawley rat assessed as effect on monocytes level at 10 to 40 mg/kg, po administered once daily via gavage for 28 days and measured on day 29; type: organism-based; conditions: in vivo, 696 h, dose 10-40 mg/kg, time 29 day
# [13] = molecular target: Cyclin-dependent kinase 7 (Homo sapiens) (UniProt P50613); assay: Inhibition of CDK7 in human SUM149PT cells assessed as reduction in level of phosphorylation of Ser5 on RNA Pol II CTD at 500 nM incubated for 12 hrs followed by drug wash-out and measured after 72 hrs by western blot analysis; type: cell-based
# Chain of Cyclin-dependent kinase 7 (Homo sapiens) (P50613 whole entry): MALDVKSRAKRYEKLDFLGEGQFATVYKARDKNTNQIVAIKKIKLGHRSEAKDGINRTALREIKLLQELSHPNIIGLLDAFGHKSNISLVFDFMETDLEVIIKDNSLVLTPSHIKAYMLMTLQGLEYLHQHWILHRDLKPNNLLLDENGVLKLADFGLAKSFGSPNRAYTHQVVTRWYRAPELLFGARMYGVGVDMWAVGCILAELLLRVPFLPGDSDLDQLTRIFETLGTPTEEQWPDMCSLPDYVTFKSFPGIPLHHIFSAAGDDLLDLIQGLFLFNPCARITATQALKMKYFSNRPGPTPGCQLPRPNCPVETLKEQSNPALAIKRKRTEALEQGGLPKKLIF
# [14] = Toxicity against female Sprague-Dawley rat assessed as effect on glucose level in blood at 7.5 to 30 mg/kg, po administered once daily via gavage for 28 days and measured on day 29; type: organism-based; conditions: in vivo, 696 h, dose 7.5-30 mg/kg, time 29 day
# [15] = Protein binding in human plasma assessed as free fraction at 400 uM incubated for 4 hrs by equilibrium dialysis method based LC-MS/MS analysis; type: ADME, cell-free
# [16] = Cmax in male Sprague-Dawley rat at 10 mg/kg, po administered once daily via gavage for 28 days; type: ADME, organism-based; conditions: in vivo, time 28 day
# [17] = Half-life of the compound in human Plasma; type: ADME, cell-free
# [18] = molecular target: Cyclin-dependent kinase 2/cyclin E1 (Homo sapiens) (UniProt P24864+P24941); assay: Inhibition of human recombinant N-terminal GST-tagged CDK2/N-terminal GST-tagged Cyclin E1 expressed in HEP Sf9 cells using ATP as substrate at 2 uM measured after 60 mins by ADP-Glo reagent based luminescence analysis
# [19] = Cmax in Balb/c mouse xenografted with human MV4-11 cells at 15 mg/kg, po administered once daily via gavage; type: ADME, organism-based; conditions: in vivo
# [20] = Toxicity against male Sprague-Dawley rat assessed as effect on sodium level in blood at 10 to 40 mg/kg, po administered once daily via gavage for 28 days and measured on day 29; type: organism-based; conditions: in vivo, 696 h, dose 10-40 mg/kg, time 29 day
# [21] = Toxicity against female Sprague-Dawley rat assessed as effect on hematocrit level at 7.5 to 30 mg/kg, po administered once daily via gavage for 28 days and measured on day 29; type: organism-based; conditions: in vivo, 696 h, dose 7.5-30 mg/kg, time 29 day
# [22] = Half life in female Sprague-Dawley rat at 15 mg/kg, po administered via gavage and measured on day 1; type: ADME, organism-based; conditions: in vivo, time 1 day
# [23] = AUC(0 to t) in male Sprague-Dawley rat at 20 mg/kg, po administered via gavage and measured on day 1; type: ADME, organism-based; conditions: in vivo, 24 h, time 1 day
# [24] = molecular target: Voltage-gated inwardly rectifying potassium channel KCNH2 (Homo sapiens, UniProt Q12809); assay: Inhibition of hERG expressed in CHO cells assessed as inhibition of channel current measured at holding potential of -80 mV by whole cell patch clamp analysis; type: toxicity, cell-based
# Chain of Voltage-gated inwardly rectifying potassium channel KCNH2 (Q12809 whole entry): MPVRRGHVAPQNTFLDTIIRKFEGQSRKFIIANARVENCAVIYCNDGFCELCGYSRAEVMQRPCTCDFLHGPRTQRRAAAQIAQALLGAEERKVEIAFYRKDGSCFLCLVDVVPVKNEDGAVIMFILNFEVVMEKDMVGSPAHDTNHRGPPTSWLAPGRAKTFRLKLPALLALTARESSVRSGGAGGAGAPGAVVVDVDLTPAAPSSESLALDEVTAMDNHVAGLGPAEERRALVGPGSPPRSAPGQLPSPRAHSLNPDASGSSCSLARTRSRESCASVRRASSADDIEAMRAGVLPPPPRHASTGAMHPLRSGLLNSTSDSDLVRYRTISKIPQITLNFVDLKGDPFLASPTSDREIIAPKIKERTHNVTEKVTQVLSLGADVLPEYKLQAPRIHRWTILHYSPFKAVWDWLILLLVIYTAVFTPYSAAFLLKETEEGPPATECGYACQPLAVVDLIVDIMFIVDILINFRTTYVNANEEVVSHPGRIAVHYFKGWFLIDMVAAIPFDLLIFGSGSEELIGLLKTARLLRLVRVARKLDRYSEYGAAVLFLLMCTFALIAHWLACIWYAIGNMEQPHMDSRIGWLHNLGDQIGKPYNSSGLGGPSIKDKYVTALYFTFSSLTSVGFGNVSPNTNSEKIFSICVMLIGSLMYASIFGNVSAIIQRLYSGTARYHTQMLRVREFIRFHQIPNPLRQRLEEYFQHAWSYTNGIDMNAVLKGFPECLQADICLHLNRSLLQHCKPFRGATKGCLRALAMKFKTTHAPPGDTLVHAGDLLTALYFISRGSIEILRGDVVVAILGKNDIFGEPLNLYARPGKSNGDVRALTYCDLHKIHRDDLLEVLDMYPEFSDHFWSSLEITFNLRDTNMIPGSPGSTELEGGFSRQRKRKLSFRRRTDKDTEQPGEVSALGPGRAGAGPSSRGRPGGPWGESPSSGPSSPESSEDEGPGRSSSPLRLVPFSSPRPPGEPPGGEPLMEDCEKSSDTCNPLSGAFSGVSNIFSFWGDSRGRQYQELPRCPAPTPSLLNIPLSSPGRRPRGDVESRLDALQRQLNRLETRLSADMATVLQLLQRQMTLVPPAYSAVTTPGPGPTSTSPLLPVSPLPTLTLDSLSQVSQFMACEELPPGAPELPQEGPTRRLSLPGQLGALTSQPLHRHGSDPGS
# [25] = Toxicity against female Sprague-Dawley rat assessed as effect on chlorine level in blood at 7.5 to 30 mg/kg, po administered once daily via gavage for 28 days and measured on day 29; type: organism-based; conditions: in vivo, 696 h, dose 7.5-30 mg/kg, time 29 day
# [26] = Toxicity against female Sprague-Dawley rat assessed as effect on red blood cells level at 7.5 to 30 mg/kg, po administered once daily via gavage for 28 days and measured on day 29; type: organism-based; conditions: in vivo, 696 h, dose 7.5-30 mg/kg, time 29 day
# [27] = test system: HCC1395; assay: Antiproliferative activity against human HCC1395 cells assessed as reduction in cell viability incubated for 7 days by CellTiter-Glo reagent based luminescence analysis; type: functional; conditions: HCC1395, 168 h
# [28] = test system: SUM149PT; assay: Induction of DNA damage in human SUM149PT cells assessed as increase in gammaH2AX phosphorylation at 250 to 1000 nM incubated for 1 to 24 hrs by western blot analysis; type: functional, cell-based; conditions: dose 250-1000 nM, time lower 1.0 hrs, time upper […]
# [29] = test system: Mus musculus; assay: In vivo inhibition of CDK7 in Balb/c mouse xenografted with human SUM149PT cells assessed as reduction in phosphorylation of Ser5 on RNA Pol II at 15 to 30 mg/kg, po administered once daily via gavage and measured at 4 hrs post-last drug dosage by western blot analysis; type: functional, organism-based; conditions: dose 15-30 mg/kg
# [30] = Toxicity against female Sprague-Dawley rat assessed as effect on mean corpuscular volume at 7.5 to 30 mg/kg, po administered once daily via gavage for 28 days and measured on day 29; type: organism-based; conditions: in vivo, 696 h, dose 7.5-30 mg/kg, time 29 day
# [31] = Half life in Sprague-Dawley rat at 50 mg/kg, po measured for 24 hrs by LC-MS/MS analysis; type: ADME, organism-based; conditions: in vivo
# [32] = molecular target: CDK7/Cyclin H/MNAT1 (Homo sapiens) (UniProt P51946+P50613+P51948); assay: Inhibition of human recombinant N-terminal 6X His-tagged CDK7/CCNH/N-terminal 6X His-tagged MNAT1 expressed in HEP Sf9 cells using ATP as substrate at 2 uM measured after 60 mins by ADP-Glo reagent based luminescence assay
# [33] = AUC(0 to t) in male Sprague-Dawley rat at 10 mg/kg, po administered via gavage and measured on day 1; type: ADME, organism-based; conditions: in vivo, 24 h, time 1 day
# Chain of Cyclin-dependent kinase 13/Cyclin-K (Q14004 whole entry): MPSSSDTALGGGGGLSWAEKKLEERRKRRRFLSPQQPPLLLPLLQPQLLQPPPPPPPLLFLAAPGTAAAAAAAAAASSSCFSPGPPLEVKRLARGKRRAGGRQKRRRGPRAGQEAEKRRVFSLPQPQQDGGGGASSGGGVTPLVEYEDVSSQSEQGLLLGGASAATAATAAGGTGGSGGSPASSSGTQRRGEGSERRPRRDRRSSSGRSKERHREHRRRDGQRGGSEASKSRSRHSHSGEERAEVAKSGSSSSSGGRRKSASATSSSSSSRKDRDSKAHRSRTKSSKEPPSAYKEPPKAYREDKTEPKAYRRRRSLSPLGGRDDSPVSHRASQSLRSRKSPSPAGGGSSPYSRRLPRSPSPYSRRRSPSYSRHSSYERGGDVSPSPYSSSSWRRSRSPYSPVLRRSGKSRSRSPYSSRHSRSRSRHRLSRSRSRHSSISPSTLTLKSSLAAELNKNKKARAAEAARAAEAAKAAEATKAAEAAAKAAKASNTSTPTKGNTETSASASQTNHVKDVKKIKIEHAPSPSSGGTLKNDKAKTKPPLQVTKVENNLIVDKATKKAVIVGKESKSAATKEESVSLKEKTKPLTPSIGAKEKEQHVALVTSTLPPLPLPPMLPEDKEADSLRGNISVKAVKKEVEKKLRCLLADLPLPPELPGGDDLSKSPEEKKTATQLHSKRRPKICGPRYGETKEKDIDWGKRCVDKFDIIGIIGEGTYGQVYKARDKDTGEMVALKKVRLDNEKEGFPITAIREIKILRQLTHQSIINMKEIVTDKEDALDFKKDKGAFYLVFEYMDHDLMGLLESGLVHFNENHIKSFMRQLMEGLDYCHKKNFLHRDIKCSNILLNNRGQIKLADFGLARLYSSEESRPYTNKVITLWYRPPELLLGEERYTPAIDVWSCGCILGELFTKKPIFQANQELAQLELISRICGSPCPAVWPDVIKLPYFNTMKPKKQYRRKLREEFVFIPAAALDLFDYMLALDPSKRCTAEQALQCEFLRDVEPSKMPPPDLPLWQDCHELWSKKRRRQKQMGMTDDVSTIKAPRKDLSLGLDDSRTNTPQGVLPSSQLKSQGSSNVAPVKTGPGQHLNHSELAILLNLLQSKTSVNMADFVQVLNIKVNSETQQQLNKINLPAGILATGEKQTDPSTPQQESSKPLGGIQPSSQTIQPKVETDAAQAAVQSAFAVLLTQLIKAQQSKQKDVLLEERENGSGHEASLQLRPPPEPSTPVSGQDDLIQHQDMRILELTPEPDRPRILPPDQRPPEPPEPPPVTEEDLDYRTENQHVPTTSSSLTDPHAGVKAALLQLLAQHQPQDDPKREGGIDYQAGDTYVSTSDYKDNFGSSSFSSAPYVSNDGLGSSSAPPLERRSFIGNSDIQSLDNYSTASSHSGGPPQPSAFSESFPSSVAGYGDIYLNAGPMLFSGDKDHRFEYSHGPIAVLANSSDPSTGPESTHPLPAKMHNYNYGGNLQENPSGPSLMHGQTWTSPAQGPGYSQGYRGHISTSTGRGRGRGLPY
# Chain of Cyclin-dependent kinase 13/Cyclin-K (O75909 whole entry, further chain): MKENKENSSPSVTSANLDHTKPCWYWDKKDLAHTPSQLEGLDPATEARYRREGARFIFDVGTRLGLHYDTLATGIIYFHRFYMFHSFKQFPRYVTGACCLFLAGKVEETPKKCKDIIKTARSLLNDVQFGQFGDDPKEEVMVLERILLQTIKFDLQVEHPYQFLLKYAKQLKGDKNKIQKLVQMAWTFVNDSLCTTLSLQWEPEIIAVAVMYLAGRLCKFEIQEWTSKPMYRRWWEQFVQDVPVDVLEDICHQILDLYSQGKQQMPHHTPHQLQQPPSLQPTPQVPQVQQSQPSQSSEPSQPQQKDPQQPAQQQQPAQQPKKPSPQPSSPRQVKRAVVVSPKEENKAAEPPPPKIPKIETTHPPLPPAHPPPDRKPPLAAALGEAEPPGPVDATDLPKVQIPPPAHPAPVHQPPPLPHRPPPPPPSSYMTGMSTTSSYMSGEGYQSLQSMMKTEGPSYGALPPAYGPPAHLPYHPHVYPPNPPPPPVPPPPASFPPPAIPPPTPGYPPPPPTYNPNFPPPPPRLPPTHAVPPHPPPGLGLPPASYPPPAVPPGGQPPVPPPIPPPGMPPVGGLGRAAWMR
smiles,measurement,setting,value
C=CC(=O)N1CCc2c(ncnc2N2CC[C@@H](Nc3ncc(Cl)c(OC)n3)C2)C1,pIC50,[1],6.95
same,Activity,[2],Non-toxic
same,inhibition,[3],Active
same,Cmax,[4],870 ng/mL
same,pIC50,[5],7.06
same,t1/2,[6],1.38 h
same,pIC50,[7],< 4.30
same,pIC50,[8],6.87
same,AUC,[9],2140 ng·h/mL
same,AUC(0-inf),[10],270 ng·h/mL
same,pIC50,[11],7.08
same,Activity,[12],Non-toxic
same,inhibition,[13],inactive
same,Activity,[14],Non-toxic
same,"fraction unbound at 4 h, 400 µM",[15],0.127
same,Cmax,[16],576 ng/mL
same,half-life,[17],> 4.82 h
same,inhibition,[18],63%
same,Cmax,[19],647 ng/mL
same,Activity,[20],Non-toxic
same,Activity,[21],Non-toxic
same,half-life,[22],3.7 h
same,AUCt,[23],2550 ng·h/mL
same,pIC50,[24],< 4.52
same,Activity,[25],Non-toxic
same,Activity,[26],Non-toxic
same,pIC50,[27],7.16
same,Activity,[28],Active
same,inhibition,[29],inactive
same,Activity,[30],Non-toxic
same,half-life,[31],6.79 h
same,inhibition,[32],94%
same,AUCt,[33],978 ng·h/mL

# From ChEMBL document CHEMBL6153137, “Design, Synthesis, and Biological Evaluation of Novel Orally Available Covalent CDK12/13 Dual Inhibitors for the Treatment of Tumors” (J Med Chem, 2025)
